Test results reported in patent US20220151983A1, “COMPOUNDS FOR INHIBITING FUCOSYLATION AND METHODS FOR USING THE SAME” (SCORE PHARMA, INC., priority 2019, published 2022).
Structures can show the parent of a compound that is named as a salt. Where two headings read alike, the source gives them in different places.

Key:
[1] = target: T1, fucosyltransferase (FUT-8) (Homo sapiens, UniProt Q9BYC5); experiment: Inhibition of fucosyltransferase (FUT-8) activity, detection of fucosylation of the substrate protein; type: biochemical; conditions: for inhibition at 10 µM: read-out: Primary Screen (10 μM), inhibition value
T1 sequence (Q9BYC5 1-575): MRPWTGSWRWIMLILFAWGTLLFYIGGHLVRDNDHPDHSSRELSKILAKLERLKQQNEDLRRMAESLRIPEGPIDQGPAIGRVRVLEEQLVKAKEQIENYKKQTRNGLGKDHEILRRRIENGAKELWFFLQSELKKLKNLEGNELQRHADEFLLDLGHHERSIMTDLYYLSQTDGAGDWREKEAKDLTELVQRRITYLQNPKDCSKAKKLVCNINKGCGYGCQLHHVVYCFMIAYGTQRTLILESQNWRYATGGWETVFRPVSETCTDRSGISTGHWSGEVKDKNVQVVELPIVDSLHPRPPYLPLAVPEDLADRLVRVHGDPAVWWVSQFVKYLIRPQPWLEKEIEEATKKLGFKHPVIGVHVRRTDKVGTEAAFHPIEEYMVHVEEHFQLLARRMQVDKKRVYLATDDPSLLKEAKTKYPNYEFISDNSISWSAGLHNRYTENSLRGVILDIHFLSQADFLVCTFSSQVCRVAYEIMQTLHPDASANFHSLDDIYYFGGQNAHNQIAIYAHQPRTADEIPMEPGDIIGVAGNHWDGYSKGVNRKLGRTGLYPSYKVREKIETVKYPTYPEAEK
Experimental: Briefly, a compound was combined with fucosyltransferase (FUT-8) and appropriate substrates and incubated for 1 hour. The reaction was terminated, and a detection reagent mixture was added to detect the amount of fucosylation of the substrate protein.

[2] = test system: CHO cells producing an anti-IL8 IgG monoclonal antibody (ATCC CRL-12445); experiment: Reduction of fucosylation of anti-IL8 mAb produced by CHO cells, LC-MS analysis; type: cell-based
Excerpt: Briefly, Epicatechin Monogallate (ECG), Epicatechin-3-Monogallate (ECGC) and Aurin Tricarboxylic Acid (ATA) were included in the cell culture media and added to CHO cells producing an anti-IL8 IgG monoclonal antibody (mAb) obtained from [NT] CRL-12445), which is also described in U.S. Pat. No. 6,025,158, which is hereby incorporated by reference in its entirety. After a specified period of time the cells were harvested and the anti-IL8 mAb purified by standard methods. Purified anit-IL8 mAbs were then reduced by the addition of dithiothreitol and subjected to LC-MS analysis to determine the level of fucosylation. The decrease in the level of anti-IL8 fucosylation are depicted in FIG. 20 AND FIG. 21.

[3] = 10 μM compound, incubated for 1 hour
[4] = incubated for 1 hour, read-out: IC50 Value

With O=C(O[C@@H]1Cc2c(O)cc(O)cc2O[C@@H]1c1cc(O)c(O)c(O)c1)c1cc(O)c(O)c(O)c1 the inhibition at 10 µM [1, 3] was 39%, the IC50 [1, 4] was > 10 µM and the reduction in fucosylation ([2]; 10 μM in cell culture media) was 6%.

For Cc1ccc(C(=O)Nc2ccc(S(=O)(=O)O)c3cc(S(=O)(=O)O)cc(S(=O)(=O)O)c23)cc1NC(=O)c1cccc(NC(=O)Nc2cccc(C(=O)Nc3cc(C(=O)Nc4ccc(S(=O)(=O)O)c5cc(S(=O)(=O)O)cc(S(=O)(=O)O)c45)ccc3C)c2)c1 [Suramin, reference compound], the inhibition at 10 µM [1, 3] was 70% and the IC50 [1, 4] was < 10 µM.

O=c1cc(-c2ccccc2)oc2cc(O)c(O)c(O)c12 [Baicalein] showed an inhibition at 10 µM [1, 3] of 29%.

In the case of Carboplatin [reference compound], the “Primary Screen (10 μM), inhibition value” [1, 3] is reported as 45% and the IC50 [1, 4] is reported as > 10 µM.

In the case of O=C1C=C2CC3(O)COc4c(ccc(O)c4O)C3=C2C=C1O (centres unmarked), the inhibition at 10 µM [1, 3] is reported as 82% and the IC50 [1, 4] is reported as < 10 µM.

For N.N.[Cl][Pt][Cl] [Cisplatin, reference compound], the “Primary Screen (10 μM), inhibition value” [1, 3] was 60% and the IC50 [1, 4] was > 10 µM.

Work on COc1ccc(-c2cc(=O)c3c(O)cc(O)cc3o2)cc1O [Diometin] yielded an inhibition at 10 µM [1, 3] of 35%.

For O=c1cc(-c2ccccc2)oc2cccc(O)c12 [Primuletin], the inhibition at 10 µM [1, 3] was 30% and the IC50 [1, 4] was > 10 µM.

For O=c1c(O)cccc2cc(O)c(O)c(O)c12 [Purpurogallin], the inhibition at 10 µM [1, 3] was 30% and the IC50 [1, 4] was > 10 µM.

O=c1cc(-c2ccccc2)oc2cc(O)cc(O)c12 [Chrysin] was tested, and the inhibition at 10 µM [1, 3] was 30% and the IC50 [1, 4] was > 10 µM.

In the case of Cc1cc2c(C(C)C)c(O)c(O)c(C=O)c2c(O)c1-c1c(C)cc2c(C(C)C)c(O)c(O)c(C=O)c2c1O [Gossypol], the IC50 [1] is reported as > 10 µM and the inhibition at 10 µM [1] is reported as 26%.

With CCN(CC)CCNc1ccc(CO)c2sc3ccccc3c(=O)c12 [Hycanthone, reference compound] the inhibition at 10 µM [1, 3] was 27% and the IC50 [1, 4] was > 10 µM.

O=C(O[C@@H]1Cc2c(O)cc(O)cc2O[C@@H]1c1ccc(O)c(O)c1)c1cc(O)c(O)c(O)c1 [Epicatechin Monogallate] was tested, and the inhibition at 10 µM [1, 3] was 25%, the IC50 [1, 4] was > 10 µM and the reduction in fucosylation ([2]; 10-fold lower concentration than 100 μM) was 13%. For the same compound, the “core fucosylated species, with concomitant rise in the afucosylated species” value ([2]; dose dependence) was “dose dependent decrease” and the reduction in fucosylation ([2]; maximum concentration (100 μM) in cell culture media) was 25%.

C=C1c2cccc(O)c2C(=O)C2=C(O)[C@]3(O)C(=O)C(C(N)=O)=C(O)[C@@H](N(C)C)[C@@H]3[C@@H](O)[C@H]12 [Methacycline, reference compound] was tested, and the “Primary Screen (10 μM), inhibition value” [1, 3] was 82% and the IC50 [1, 4] was < 10 µM.

With C[n+]1c2cc(N)ccc2cc2ccc(N)cc21 [Acriflavinium] the inhibition at 10 µM [1, 3] was 47% and the IC50 [1, 4] was > 10 µM.

With Oc1c(Cl)cc(Cl)c(Cl)c1Cc1c(O)c(Cl)cc(Cl)c1Cl [Hexachlorophene, reference compound] the IC50 [1] was > 10 µM and the inhibition at 10 µM [1] was 40%.

For O=C1c2c(O)cccc2Cc2cccc(O)c21 [Anthralin, reference compound], the inhibition at 10 µM [1, 3] was 28% and the IC50 [1, 4] was > 10 µM.

For O=C(OC[C@H]1O[C@@H](OC(=O)c2cc(O)c(O)c(OC(=O)c3cc(O)c(O)c(O)c3)c2)[C@H](OC(=O)c2cc(O)c(O)c(OC(=O)c3cc(O)c(O)c(O)c3)c2)[C@@H](OC(=O)c2cc(O)c(O)c(OC(=O)c3cc(O)c(O)c(O)c3)c2)[C@@H]1OC(=O)c1cc(O)c(O)c(OC(=O)c2cc(O)c(O)c(O)c2)c1)c1cc(O)c(O)c(OC(=O)c2cc(O)c(O)c(O)c2)c1 [Tannic Acid], the inhibition at 10 µM [1, 3] was 93% and the IC50 [1, 4] was < 10 µM.

For O=C(O)C1=CC(=C(c2ccc(O)c(C(=O)O)c2)c2ccc(O)c(C(=O)O)c2)C=CC1=O [Aurin Tricarboxylic Acid], the inhibition at 10 µM [1, 3] was 34%, the IC50 [1, 4] was > 10 µM and the “change of fucosylation level” value ([2]; either concentration tested (data not shown)) was “did not alter the fucosylation level”.

In the case of CCOc1ccc2nc3cc(N)ccc3c(N)c2c1 [Ethcridine Lactate, Etheridine Lactate], the inhibition at 10 µM [1, 3] is reported as 26% and the IC50 [1, 4] is reported as > 10 µM.

O=C(O[C@@H]1Cc2c(O)cc(O)cc2O[C@@H]1c1cc(O)c(=O)c2c(O)c(O)cc([C@H]3Oc4cc(O)cc(O)c4C[C@H]3O)c2c1)c1cc(O)c(O)c(O)c1 [Theaflavin Monogallate] was tested, and the inhibition at 10 µM [1, 3] was 88% and the IC50 [1, 4] was < 10 µM.

O=C1c2c(O)ccc(O)c2C(=O)c2c(NCCNCCO)ccc(NCCNCCO)c21 [Mitoxanthrone Hydrocloride, Mitoxanthrone Hydrochloride, reference compound] was tested, and the inhibition at 10 µM [1, 3] was 49% and the IC50 [1, 4] was > 10 µM.
